Test results: patent publication US6841532B2, “Peptides and their use to ameliorate cell death” (priority 1995, dated 2005)
“Also recorded” adds a separate entry of the source. Where no end group is shown, it is not given here.

Columns and labels:
[1] = tested on: Cardiac myocytes from embryonic chick hearts; test: Amelioration of ammonium persulfate-induced cell death in cultured cardiac myocytes (Trypan blue exclusion); type: cell-based; details: 1 mM ammonium persulfate
Description: Cardiac myocytes from embryonic chick hearts were grown in culture using the procedures described in Rabkin, Exper. Cell. Res. 188:262-266, 1990. Briefly, white Leghorn eggs were incubated in an automatic incubator (March Rollex, Calif., USA) for 7 days at 37.8° C. and 87% humidity. Hearts were then isolated under sterile conditions from the 7-day chick embryo. Blood and connective tissue were removed under a dissecting microscope in a solution of balanced salts (DMS8) with the following composition (mM): NaCl 116, KCl 5.4, NaH2PO4 1 and dextrose 5.6. Disaggregation was carried out by 5-minute digestions in 0.005% trypsin (Gibco Laboratories, Burlington, Ontario), 0.1% BSA and 1×10^7 DNAse per mL, DMS8 (Worthington Biochemicals, Frederic, N.J., USA) at 37° C. After three digestions, the digests were diluted 1:5 in culture medium and the cells centrifuged for three minutes at 1000 g and plated.
The cultured cardiac myocytes were incubated with 1 mM ammonium persulfate for 2 hours at 37° C. to induce oxidative damage. Cell viability was assessed by Trypan blue exclusion. Six samples containing cells were then incubated with 0.0, 0.000375, 0.00375, 0.0375, 0.375 and 37.5 μM streptokinase (Hoechts-Roussel Pharmaceuticals), respectively, and 0.0, 0.000246, 0.00246, 0.0246, 0.246 and 24.6 μM plasminogen, respectively (see Table 1), for 1-2 hours at 37° C. and assessed by Trypan blue exclusion.
Control cell samples were treated with 1 mM ammonium persulfate in the absence of streptokinase (STK) and plasminogen under the same conditions.
The results are described in Table 1 in terms of the percent cell death induced by ammonium persulfate. The data represents the mean of six (6) duplicate determinations, none of which differed by more than 5%.
Each of the nineteen (19) resulting fractions was tested for the peptide's ability to ameliorate cell death according to the assay described in Example 1. The data in Table 2 represent the mean of duplicate determinations. None of the determinations differed by more than 5%.
Based on the sequences identified in Example 2, peptides were synthesized using a commercially available automated synthesizer (Applied Biosystems 430 A Peptide Synthesizer), purified by and tested according to the assay described in Example 1 for their ability to ameliorate cell death in cardiac myocytes. The sequences for these peptides were:
Table 3 presents the percentage of dead cells as measured by Trypan blue assessment as described in Example 1.

[2] = tested on: Spinal cord cells isolated from embryonic chicks; test: Amelioration of ammonium persulfate-induced cell death in spinal cord cells (trypan blue); type: cell-based, chick; details: 1 mM ammonium persulfate for 1 or 2 hours; 10 μg/ml or 20 μg/ml peptide; versus control
Description: Spinal cord cells isolated from embryonic chicks were grown in culture for 5-7 days. Chick spinal cord cells were cultured as described briefly as follows. Cell cultures were prepared from 7-day chick embryo. Ventral portions of spinal cord were dissected free of meninges and dorsal root ganglia and diced into small pieces in Dulbecco's phosphate-buffered saline (PBS). Tissue fragments were incubated in PBS with 0.25% trypsin and 20 μg/ml DNase for 30 min at 36° C. Trypsin was inactivated by the addition of horse serum and cells were dissociated by gentle pipetting.
Isolated cells were washed, resuspended in medium and plated onto plastic coverslips in petri dishes. The medium consisted of Eagle's minimum essential medium (MEM), 10% fetal bovine serum (FBS), 5 mg/ml D-glucose and 25 μg/ml gentamycin. Cells were grown in an incubator with 5% CO2/95% air at 37° C. and the medium was renewed twice a week. Cells were used for experiment after 14 days.
Both the experimental and control cultures were treated with 1 mM ammonium persulfate for 1 or 2 hours at 37° C. The experimental cultures were treated with either 10 μg/ml or 20 μg/ml of the 20 mer peptide (SEQ ID NO: 6) for the same length of time. The number of dead cells, assayed by trypan blue, in the experimental groups was compared to that in the control group.

[3] = tested on: M07E; test: Serum-deprivation-induced cell death, 3H-thymidine incorporation, M07E; type: cell-based, human; details: M07E starved 30 hours, 20 μg/ml, then washed, IL-3 for 22 hours; control 2,003 ± 468
Description: (§1) Cells in the latter group were washed free of the 20 mer (SEQ. ID NO. 6), given saturating concentrations of growth factor (5 ng/ml of human interleukin-3) and incubated for an additional 22 hours. After the 22 hours, 1 μCi of ^3H-thymidine (2 Ci/mmol) was added and, after 2 hours, the cellular contents were harvested onto filtermats. Then ^3H-thymidine incorporation was measured using an LKB Betaplate Harvester and liquid scintillation counter. Note the increased viability of cells treated with the 20 mer peptide (SEQ ID NO: 6).

[4] = tested on: TF-1; test: Serum-deprivation-induced cell death, 3H-thymidine incorporation, TF-1; type: cell-based, human; details: TF-1 starved 30 hours, 20 μg/ml, then washed, IL-3 for 22 hours; control 14,728 ± 2,825
Description: as §1

[5] = reverse phase HPLC fractions of streptokinase incubated 1:1 with plasminogen

| Substance | percentage of dead cells ([1]; Peptide Concentration 5 μM) | percentage of dead cells ([1]; Peptide Concentration 20 μM) | also measured |
| --- | --- | --- | --- |
| YVDVDTNELLK [11 mer] | 38.6% | – | – |
| Streptokinase [reference compound] | – | – | Cell Death (%) ([1]; 0.000375 μM streptokinase with 0.000246 μM plasminogen, control 81): 50%; Cell Death (%) ([1]; 0.00375 μM streptokinase with 0.00246 μM plasminogen, control 81): 37%; Cell Death (%) ([1]; 0.0375 μM streptokinase with 0.0246 μM plasminogen, control 81): 29%; Cell Death (%) ([1]; 0.375 μM streptokinase with 0.246 μM plasminogen, control 81): 25%; Cell Death (%) ([1]; 37.5 μM streptokinase with 24.6 μM plasminogen, control 81): 16% |
| YVDVDT [6 mer #2] | 37.0% | 25.4% | – |
| RLILDSRVLERYLLEAKEAE [Irrelevant #2, irrelevant peptide utilized as negative control, reference compound] | 77.4% | 76.1% | – |
| SVDVEY [6 mer #1] | 51.9% | 36.8% | – |
| EVTEEEETVPLKThE-AMIDE [Irrelevant #3, reference compound] | 79.5% | 81.1% | – |
| YVDVDTNELLKSEQLLTASE [fraction 12] | – | – | Cell Death (%) [1, 5]: 29% |
| SVDVEYTVQFTPLNPDDD [18 mer] | – | 54.4% | – |
| SVDVEYTVQFTPLNPDDDFRP [fraction 13] | – | – | Cell Death (%) [1, 5]: 39% |
| SVDVEYTQFTDFRGKLTKLL [20 mer] | 47.6% | 23.1% | survival of spinal cord cells (number of dead cells, trypan blue) [2]: dramatically enhanced cell survival; also recorded: almost completely prevented cell death; 3H-THYMIDINE COUNTS (COUNTS PER MINUTE) [3]: 4,282 ± 212 COUNTS PER MINUTE; percentage of dead cells ([1]; Peptide Concentration 10 μM): 35.4%; percentage of dead cells ([1]; Peptide Concentration 15 μM): 31.6%; percentage of dead cells ([1]; Peptide Concentration 20 μM, listed as 20mer): ~20%; 3H-THYMIDINE COUNTS (COUNTS PER MINUTE) [4]: 32,701 ± 5,565 COUNTS PER MINUTE |
| NFLRGKLKLYTGEACRTGDR [Irrelevant #1, irrelevant peptide utilized as negative control, reference compound] | 77.1% | 67.6% | – |
